The results in this text go back to US20210137809A1, “COSMETIC COMPOSITION FOR WRINKLE REDUCTION OR ANTI-INFLAMMATION, CONTAINING SUBSTANCE P” (Biosolution Co., Ltd, priority 2017, published 2021).

Assay [1] concerns collagen synthesis in Human skin fibroblasts. Put plainly: Collagen synthesis effect in skin fibroblasts (Procollagen Type1-Peptide EIA). The assay is classed as cell-based. The following applies: 24-hr culture, maximum increase (up to) relative to PBS control, FIG. 3. The protocol: (§1) The collagen synthesis effect of the composition containing substance P was examined in skin fibroblasts. Human skin fibroblasts were put in a 96-well plate at a density of 3×10^4 CFU/well, and incubated at 37° C. for 24 hours. The medium (FGM, Lonza, USA) was removed, and then 180 μL of a fresh medium was dispensed into each well, and 20 μL of the composition containing substance P or substance P dissolved in a phosphate buffer solution (PBS) was added thereto, followed by incubation at 37° C. for 24 hours. In this regard, the concentration of the composition or the substance P added was determined such that its final concentration became a desired concentration, taking into consideration the total volume of the medium. After 24-hr culture, the supernatant was collected, and the amount of collagen in the medium was measured using a Procollagen Type1-Peptide (PIP) EIA kit (TaKaRa, Japan).
The difference was statistically significant. Statistical analysis was performed using Student's t-test, and the effects of experimental groups (*p<0.05, **p<0.01) relative to the control (phosphate buffer solution-treated group) and the effects of substance P dissolved in phosphate buffer solution and the composition of the present invention (#p<0.05, ##<0.01) were compared.

In assay [2] the test system is inflammatory cytokine IL-6. Put plainly: Inflammatory cytokine IL-6-reducing effect in LPS-treated Raw 264.7 cells. The assay is classed as cell-based, mouse. To be noted: 100 ng/mL LPS, 24-hr culture, maximum decrease (up to) relative to LPS-treated group, FIG. 5. The protocol: The inflammatory cytokine IL-6-reducing effect of the composition including substance P was examined in Raw 264.7 cells which are mouse macrophages. […] were put in a 24-well plate at a density of 4×10^5 CFU/well, and incubated at 37° C. for 24 hours. A growth medium for Raw 264.7 cells was prepared by mixing DMEM (Welgene, Korea) with 200 mM of L-glutamine (Gibco, USA). After 24-hr culture, the medium was removed, and then 1 mL of a fresh medium was dispensed into each well. To induce intracellular inflammation, 100 ng/mL of LPS (Sigma, USA) was treated thereto, and simultaneously, the composition including substance P or substance P dissolved in a phosphate buffer solution (PBS) was dispensed thereto such that the final volume was 2 mL/well, followed by incubation at 37° C. for 24 hours. In this regard, the concentration of the composition or the substance P added was determined such that its final concentration became a desired concentration, taking into consideration the total volume of the medium. After 24-hr culture, the supernatant was collected, and the amount of inflammatory cytokine IL-6 in the medium was measured by mouse IL-6 immunoassay (R&D systems, USA).
Significant IL-6 reduction was determined using Student's t-test by comparing the IL-6 amount practically measured in the experimental group with that of the LPS-treated group (*p<0.05, **p<0.01).

A further assay relates to nitric oxide (NO). Description: Nitric oxide (NO)-reducing effect in LPS-treated Raw 264.7 cells (Griess reagent). The format is cell-based, mouse. The following applies: 100 ng/mL LPS, 24-hr culture, maximum decrease (up to), LPS only = 100%, FIG. 6. The protocol:
In inflammatory environments, the nitric oxide (NO)-reducing effect of the composition including substance P was examined in Raw 264.7 cells which are mouse macrophages. […] were put in a 24-well plate at a density of 4×10^5 CFU/well, and incubated at 37° C. for 24 hours. A growth medium for Raw 264.7 cells was prepared by mixing DMEM (Welgene, Korea) with 200 mM of L-glutamine (Gibco, USA). After 24-hr culture, the medium was removed, and then 1 mL of a fresh medium was dispensed into each well. […] In this regard, the concentration of the composition or the substance P added was determined such that its final concentration became a desired concentration, taking into consideration the total volume of the medium.
After 24-hr culture, the supernatant was collected, and 100 μL thereof was added to a 96-well plate, and an equal volume of Griess reagent (Sigma, USA) was added thereto, and the plate was left at room temperature for 15 minutes. Then, absorbance at 540 nm was measured. […] The production amount of nitric oxide (NO) in the group treated with LPS only was regarded as 100%, and the amount of nitric oxide (NO) in the medium was determined.
Significant NO reduction was determined using Student's t-test by comparing the NO amount practically measured in the experimental group with that of the LPS-treated group (*p<0.05, **p<0.01).

Another assay deals with collagenase (MMP-1). Description: Collagenase (MMP-1) inhibition effect in skin fibroblasts (Human total MMP-1 kit). The assay is classed as cell-based. The following applies: 24-hr culture, maximum decrease (up to) relative to PBS control, FIG. 4. On the procedure:
as §1, with “collagenase (MMP-1) inhibition” for “collagen synthesis”, “including” for “containing”, “collagenase (MMP-1)” for “collagen”, “Human total MMP-1” for “Procollagen Type1-Peptide (PIP) EIA”, “(R&D systems, USA).” for “(TaKaRa, Japan).”
The difference was statistically significant. Statistical analysis was performed using Student's t-test, and the MMP-1 production of each experimental group (*p<0.05, **p<0.01) relative to the control (phosphate buffer solution-treated group) and the MMP-1 productions by substance P dissolved in phosphate buffer solution and the composition of the present invention (#p<0.05, ##p<0.01) were compared.

As to “Arg-Pro-Lys-Pro-Gln-Gln-Phe-Phe-Gly-Leu-Met-NH2 [substance P]”, the collagen synthesis increase entry in assay [1] is “about 20%”. The “decrease of amount of IL-6 induced by LPS” value in assay [2] is recorded as “about 20%”. Moreover, in the assay on nitric oxide (NO), the “decrease of amount of NO induced by LPS” value is “about 10%”. Further, the “collagenase (MMP-1) production decrease” value in the assay with collagenase (MMP-1) is “about 20%”.
